Measured values published in US20230265094A1, “RIPK1 INHIBITORS AND METHODS OF USE” (Merck Sharp & Dohme LLC, priority 2020, published 2023).
pEC50: −log10 of the molar value. Structures can show the parent of a compound that is named as a salt.

Each molecule was assayed against T1, RIPK1 (Homo sapiens, UniProt Q13546) (assay: RIPK1-ADP-Glo enzymatic assay). Details: ADP-Glo luminescent ADP detection; 25 nM GST-RIPK1 kinase domain (residues 1-327), 300 μM ATP, dephosphorylated-MBP substrate; 30 min pre-incubation, 150 min reaction.
T1 construct: recombinant GST-RIPK1 kinase domain (residues 1-327) enzyme produced from baculovirus-transfected Sf21 cells; host or cells: baculovirus-transfected Sf21 insect cells
T1 sequence (Q13546 1-327): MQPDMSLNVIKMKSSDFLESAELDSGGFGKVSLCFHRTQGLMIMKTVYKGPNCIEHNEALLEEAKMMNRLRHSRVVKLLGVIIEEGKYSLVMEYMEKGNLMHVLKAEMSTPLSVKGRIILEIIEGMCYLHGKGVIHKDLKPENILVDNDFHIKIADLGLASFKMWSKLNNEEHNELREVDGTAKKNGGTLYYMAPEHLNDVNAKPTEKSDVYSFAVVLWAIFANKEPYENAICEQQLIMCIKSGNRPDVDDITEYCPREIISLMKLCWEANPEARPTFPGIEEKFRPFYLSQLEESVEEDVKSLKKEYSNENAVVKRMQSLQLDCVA
Assay type: biochemical
Protocol: RIPK1-ADP-Glo Enzymatic Assay
The enzymatic activity of RIPK1 is measured using an assay derived from ADP-Glo kit (Promega™), which provides a luminescent-based ADP detection system. Specifically, the ADP generated by RIPK1 kinase is proportionally detected as luminescent signals in a homogenous fashion. In this context, the assessment of the inhibitory effect of small molecules (EC50) is measured by the effectiveness of the compounds to inhibit the ATP to ADP conversion by RIPK1.
In this assay, the potency (EC50) of each compound was determined from a ten-point (1:3 serial dilution; top compound concentration of 100000 nM) titration curve using the following outlined procedure. To each well of a white ProxiPlus 384 well-plate, 30 nL of compound (1% DMSO in final assay volume of 3 μL) was dispensed, followed by the addition of 2 μL of 1×assay buffer (25 mM Hepes 7.3, 20 mM MgCl2, 50 mM NaCl, 1 mM DTT, 0.005% Tween20, and 0.02% BSA) containing 37.5 nM of GST-RIPK1 (recombinant GST-RIPK1 kinase domain (residues 1-327) enzyme produced from baculovirus-transfected Sf21 cells: MW=62 kDa). Plates were placed in an ambient temperature humidified chamber for a 30 minutes pre-incubation with compound. Subsequently, each reaction was initiated by the addition of 1 μL 1×assay buffer containing 900 μM ATP and […] dephosphorylated-MBP substrate. The final reaction in each well of 3 μL consists of 25 nM of GST-RIPK1, 300 μM ATP, and 3 μM dephosphorylated-MBP. Kinase reactions were allowed to proceed for 150 minutes prior to adding ADP-Glo reagents per Promega's outlined kit protocol. Dose-response curves were generated by plotting percent effect (% product conversion; Y-axis) vs. Log10 compound concentrations (X-axis). EC50 values were calculated using a non-linear regression, four-parameters sigmoidal dose-response model.
For `CC(C)OC1CN(C(=O)N2N=CC[C@H]2c2cc(F)cc(F)c2)C1` [Example 1.24, (S)-(5-(3,5-difluorophenyl)-4,5-dihydro-1H-pyrazol-1-yl)(3-isopropoxyazetidin-1-yl)methanone], the pEC50 was 7.52.
`N#Cc1cncc([C@@H]2CC=NN2C(=O)N2CC(Oc3ccc(F)cc3)C2)c1` [Example 2.39, (S)-5-(1-(3-(4-fluorophenoxy)azetidine-1-carbonyl)-4,5-dihydro-1H-pyrazol-5-yl)nicotinonitrile] showed a pEC50 of 7.48.
`CC(C)OC1CN(C(=O)N2N=CC[C@H]2c2ccc(Cl)cc2)C1` [Example 2.12, (S)-(5-(4-chlorophenyl)-4,5-dihydro-1H-pyrazol-1-yl)(3-isopropoxyazetidin-1-yl)methanone] was tested, and the pEC50 was 7.97.
Molecule `CC1(F)CN(C(=O)N2N=CC[C@H]2c2cc(F)cc(F)c2)C1` [Example 1.29, (S)-(5-(3,5-difluorophenyl)-4,5-dihydro-1H-pyrazol-1-yl)(3-fluoro-3-methylazetidin-1-yl)methanone] has a pEC50 of 7.21.
With `O=C(N1CC(F)C1)N1N=CC[C@H]1c1cc(F)cc(F)c1` [Example 1.31, (S)-(5-(3,5-difluorophenyl)-4,5-dihydro-1H-pyrazol-1-yl)(3-fluoroazetidin-1-yl)methanone] the pEC50 was 7.42.
With `CC(c1ccccc1)C1CN(C(=O)N2N=CC[C@H]2c2cc(F)cc(F)c2)C1` (single isomer, unassigned) [Example 2.43, ((S)-5-(3,5-difluorophenyl)-4,5-dihydro-1H-pyrazol-1-yl)(3-((S or R)-1-phenylethyl)azetidin-1-yl)methanone] the pEC50 was 7.33.
With `O=C(N1CC(c2cccnc2)C1)N1N=CC[C@H]1c1cc(F)cc(F)c1` [Example 1.42, (S)-(5-(3,5-difluorophenyl)-4,5-dihydro-1H-pyrazol-1-yl)(3-(pyridin-3-yl)azetidin-1-yl)methanone, TFA salt] the pEC50 was 7.54.
Work on `O=C(N1CC(O)(C(F)(F)F)C1)N1N=CC[C@H]1c1cc(F)cc(F)c1` [Example 1.27, (S)-(5-(3,5-difluorophenyl)-4,5-dihydro-1H-pyrazol-1-yl)(3-hydroxy-3-(trifluoromethyl)azetidin-1-yl)methanone] yielded a pEC50 of 6.01.
`O=C(N1CC(F)(F)C1)N1N=CC[C@H]1c1cc(F)cc(F)c1` [Example 1.32, (S)-(3,3-difluoroazetidin-1-yl)(5-(3,5-difluorophenyl)-4,5-dihydro-1H-pyrazol-1-yl)methanone] showed a pEC50 of 7.76.
In the case of `O=C(N1CC(Oc2ccccc2)C1)N1N=CC[C@H]1c1ccccc1` (single isomer, unassigned) [Example 2.5], the pEC50 was 9.30.
With `Cc1ncc([C@@H]2CC=NN2C(=O)N2CC(Oc3ccc(F)cc3)C2)cc1F` (single isomer, unassigned) [Example 2.40] the pEC50 was 7.83.
Work on `COC(=O)C1CC12CN(C(=O)N1N=CC[C@H]1c1cc(F)cc(F)c1)C2` (mixture of isomers) [Example 1.47, methyl (R and S)-5-((S)-5-(3,5-difluorophenyl)-4,5-dihydro-1H-pyrazole-1-carbonyl)-5-azaspiro[2.3]hexane-1-carboxylate] yielded a pEC50 of 6.71.
With `CS(=O)(=O)N1CCC2(CC1)CN(C(=O)N1N=CC[C@H]1c1cc(F)cc(F)c1)C2` [Example 1.20, (S)-(5-(3,5-difluorophenyl)-4,5-dihydro-1H-pyrazol-1-yl)(7-(methylsulfonyl)-2,7-diazaspiro[3.5]nonan-2-yl)methanone] the pEC50 was 5.88.
In the case of `N#Cc1cc(OC2CN(C(=O)N3N=CCC3c3cc(F)cc(F)c3)C2)ncn1` (racemic) [Example 1.5, (R and S)-6-((1-(5-(3,5-difluorophenyl)-4,5-dihydro-1H-pyrazole-1-carbonyl)azetidin-3-yl)oxy)pyrimidine-4-carbonitrile, TFA salt], the pEC50 was 6.85.
For `N#Cc1ccc(OC2CN(C(=O)N3N=CC[C@H]3c3cc(F)cc(F)c3)C2)cn1` [Example 1.61, (S)-5-((1-(5-(3,5-difluorophenyl)-4,5-dihydro-1H-pyrazole-1-carbonyl)azetidin-3-yl)oxy)picolinonitrile], the pEC50 was 7.58.
With `C[C@@H]1[C@@H](Oc2ccc(F)cc2)CN1C(=O)N1N=CC[C@H]1c1cncc(C#N)c1` [Example 2.24, 5-((S)-1-((2R,3S)-3-(4-fluorophenoxy)-2-methylazetidine-1-carbonyl)-4,5-dihydro-1H-pyrazol-5-yl)nicotinonitrile] the pEC50 was 7.94.
`O=C(N1CC(OC2CCCC2)C1)N1N=CC[C@H]1c1cc(F)cc(F)c1` [Example 1.17, (S)-(3-(cyclopentyloxy)azetidin-1-yl)(5-(3,5-difluorophenyl)-4,5-dihydro-1H-pyrazol-1-yl)methanone, TFA salt] gave a pEC50 of 7.94.
Work on `C[C@@H]1[C@H](Oc2ccccc2)CN1C(=O)N1N=CC[C@H]1c1cc(F)cc(F)c1` (single isomer, unassigned) [Example 1.12, ((S)-5-(3,5-difluorophenyl)-4,5-dihydro-1H-pyrazol-1-yl)((2R,3R or 2S,3S)-2-methyl-3-phenoxyazetidin-1-yl)methanone, TFA salt] yielded a pEC50 of 8.06.
Molecule `O=C(N1CC(O)(c2ccccc2)C1)N1N=CC[C@H]1c1ccc(Cl)cc1` [Example 2.8, (S)-(5-(4-chlorophenyl)-4,5-dihydro-1H-pyrazol-1-yl)(3-hydroxy-3-phenylazetidin-1-yl)methanone] has a pEC50 of 5.61.
In the case of `O=C(N1CC2(CCCO2)C1)N1N=CC[C@H]1c1cc(F)cc(F)c1` [Example 1.26, (S)-(5-(3,5-difluorophenyl)-4,5-dihydro-1H-pyrazol-1-yl)(5-oxa-2-azaspiro[3.4]octan-2-yl)methanone], the pEC50 was 7.32.
`O=C(N1CC2(C1)CN(c1ccccn1)C2)N1N=CC[C@H]1c1cc(F)cc(F)c1` [Example 1.19, (S)-(5-(3,5-difluorophenyl)-4,5-dihydro-1H-pyrazol-1-yl)(6-(pyridin-2-yl)-2,6-diazaspiro[3.3]heptan-2-yl)methanone, TFA salt] gave a pEC50 of 5.46.
For `C[C@@H]1[C@@H](Oc2ccc(F)cc2)CN1C(=O)N1N=CC[C@H]1c1ccc(Cl)cc1` [Example 2.28, ((S)-5-(4-chlorophenyl)-4,5-dihydro-1H-pyrazol-1-yl)((2R,3S)-3-(4-fluorophenoxy)-2-methylazetidin-1-yl)methanone], the pEC50 was 8.23.
With `O=C(N1CC(Oc2nc3ccncc3s2)C1)N1N=CC[C@H]1c1cc(F)cc(F)c1` [Example 3.6, (S)-(5-(3,5-difluorophenyl)-4,5-dihydro-1H-pyrazol-1-yl)(3-(thiazolo[5,4-c]pyridin-2-yloxy)azetidin-1-yl)methanone, TFA salt] the pEC50 was 7.74.
With `CC1(Oc2ccc(F)cc2)CN(C(=O)N2N=CC[C@H]2c2cncc(F)c2)C1` (single isomer, unassigned) [Example 2.31] the pEC50 was 7.77.
`COC1(C)CN(C(=O)N2N=CC[C@H]2c2ccc(Cl)cc2)C1` [Example 2.13, (S)-(5-(4-chlorophenyl)-4,5-dihydro-1H-pyrazol-1-yl)(3-methoxy-3-methylazetidin-1-yl)methanone] showed a pEC50 of 7.19.
With `Cn1c(OC2CN(C(=O)N3N=CC[C@H]3c3cc(F)cc(F)c3)C2)nc2ccccc21` [Example 3.2, (S)-(5-(3,5-difluorophenyl)-4,5-dihydro-1H-pyrazol-1-yl)(3-((1-methyl-1H-benzo[d]imidazol-2-yl)oxy)azetidin-1-yl)methanone, TFA salt] the pEC50 was 7.01.
`CC1CN(C(=O)N2N=CC[C@H]2c2cc(F)cc(F)c2)C1` [Example 1.40, (S)-(5-(3,5-difluorophenyl)-4,5-dihydro-1H-pyrazol-1-yl)(3-methylazetidin-1-yl)methanone] gave a pEC50 of 7.59.
In the case of `O=C(N1CC(Oc2ccccn2)C1)N1N=CC[C@H]1c1cc(F)cc(F)c1` [Example 1.58, (S)-(5-(3,5-difluorophenyl)-4,5-dihydro-1H-pyrazol-1-yl)(3-(pyridin-2-yloxy)azetidin-1-yl)methanone], the pEC50 was 5.86.
Molecule `CC(C)C1(O)CN(C(=O)N2N=CC[C@H]2c2cc(F)cc(F)c2)C1` [Example 1.30, (S)-(5-(3,5-difluorophenyl)-4,5-dihydro-1H-pyrazol-1-yl)(3-hydroxy-3-isopropylazetidin-1-yl)methanone] has a pEC50 of 5.64.
In the case of `COC1(C(F)(F)F)CN(C(=O)N2N=CC[C@H]2c2cc(F)cc(F)c2)C1` [Example 1.46, (S)-(5-(3,5-difluorophenyl)-4,5-dihydro-1H-pyrazol-1-yl)(3-methoxy-3-(trifluoromethyl)azetidin-1-yl)methanone], the pEC50 was 6.63.
